Laboratory results as given in patent US20110118298A1, “COMPOSITIONS, KITS, AND METHODS FOR IDENTIFICATION, ASSESSMENT, PREVENTION, AND THERAPY OF CANCER” (INFINITY PHARMACEUTICALS, INC., priority 2009, published 2011).
Entries after “also recorded” stand apart in the source; their conditions may differ. Structures can show the parent of a compound that is named as a salt.

Experiments:
HER2 = assay: Time to client protein degradation by immunoblot, BT-474 cells; type: cell-based, human; conditions: 1 uM IPI-504
Experimental: FIG. 7B is panel of immunoblot images showing the levels of ALK, phospho-ALK and cleaved-PARP in H3122 cells, HER2 in BT474 cells, and EGFR in H1650 cells at various time points after IPI-504 (1 uM) treatment. Proteins levels were monitored by immunoblotting.
Rearrangements at the ALK locus have been reported in about 5% of NSCLC patients, forming an oncogenic fusion of the N-terminus of EML4 with the C-terminal kinase domain of ALK (Soda, M. et al. (2007) Nature 448: 561-6). To determine whether the EML4-ALK fusion protein is a client protein of Hsp90, we incubated the EML4-ALK-expressing NSCLC cell line H3122 with increasing concentrations of IPI-504 and measured the abundance of total and phosphorylated ALK protein by ELISA (FIG. 7a). In this experiment, virtually all ALK protein is degraded at concentrations above 50 nM IPI-504. The degradation IC50 measured (4 nM) makes this the most sensitive Hsp90 client protein we have encountered. […] To further confirm that EML4-ALK is indeed a client of Hsp90, we performed immunoprecipitations with an antibody directed against Hsp90a, and detected a protein band at the predicted molecular weight ([…]) with an ALK antibody in Hsp90 immunoprecipitates from H3122 cells but not control cells (FIG. 7c, lane 1 and 3). […]

[1] = system: squamous cell carcinoma (SCC); assay: Clinical trial, response to IPI-504 by histology; type: in vivo, human
From the text: This example describes the results from a clinical trial that assessed the efficacy of IPI-504 in patients with squamous cell carcinoma (SCC).
FIGS. 13A-13B depict waterfall plots showing responses to IPI-504 according to cancer subtypes analyzed by histology. The cancers examined were adenocarcinoma (shown as #1), bronchioloalveolar carcinoma (BAC) (shown as #2), large cell lung cancer (shown as #3), squamous cell carcinoma (shown as #4), unknown (shown as #5) and control (shown as #6). Each bar represents one patient. The y-axis of FIG. 13A represents % of tumor volume change from baseline.

EML4-ALK = EML4-ALK and phospho-ALK level by ELISA in H3122 cells; type: cell-based, human
From the text: FIG. 7A depicts the relative dose-response curves of the level of EML-ALK (open circles) and phospho-EML4-ALK (solid squares) monitored using an ELISA in H3122 cells treated with increasing concentration of IPI-504 for 72 hr. Results are shown as percentage of untreated cells.
Rearrangements at the ALK locus have been reported in about 5% of NSCLC patients, forming an oncogenic fusion of the N-terminus of EML4 with the C-terminal kinase domain of ALK (Soda, M. et al. (2007) Nature 448: 561-6). To determine whether the EML4-ALK fusion protein is a client protein of Hsp90, we incubated the EML4-ALK-expressing NSCLC cell line H3122 with increasing concentrations of IPI-504 and measured the abundance of total and phosphorylated ALK protein by ELISA (FIG. 7a). In this experiment, virtually all ALK protein is degraded at concentrations above 50 nM IPI-504. The degradation IC50 measured (4 nM) makes this the most sensitive Hsp90 client protein we have encountered. To directly compare the sensitivity of EML4-ALK to other well known Hsp90 client proteins, we incubated H3122, BT-474 and H1650 cells with 1 uM IPI-504 for different times and probed for EML4-ALK, HER2 and mutant EGFR in the relevant cell lines. […] To further confirm that EML4-ALK is indeed a client of Hsp90, we performed immunoprecipitations with an antibody directed against Hsp90a, and detected a protein band at the predicted molecular weight ([…]) with an ALK antibody in Hsp90 immunoprecipitates from H3122 cells but not control cells (FIG. 7c, lane 1 and 3).
Cells were treated for the indicated time with IPI-504 and lysed in ice-cold cell lysis buffer (Cell Signaling, Beverly, Mass.) containing protease inhibitors and HALT phosphatase inhibitor (Pierce, Rockford, Ill.). Lysates were clarified by centrifugation at 14,000 g at 4° C. and protein concentration determined by BCA method (Pierce Rockford, Ill.). […] ALK and pALK level were also monitored using an ELISA (RnD Systems, Minneapolis, Minn.) according to supplier instructions. […]

[2] = system: Colo320HSR, NCI-H716, SNU-C1, C2BBe1 xenografts; assay: Colorectal xenografts wild type for both KRAS and BRAF; type: in vivo, Nu/Nu mice; conditions: 100 mg/kg three times weekly, oral
Experimental: Preparation of a suspension of this solid amorphous dispersion was made by levigating the solid with glycerol with a spatula followed by homogenization in a 1% hydroxyethylcellulose solution in a high speed homogenizer for 10 minutes to provide in vehicle (1% hydroxyethylcellulose, 5% glycerol). The suspension was used to administer 17-AG in the below described in vivo experiments.
In the third set of studies, the Colo320HSR (FIG. 22A), NC1—H716 (FIG. 22B), SNU-C1 (FIG. 22C) and C2BBe1 (FIG. 22D) cell lines were employed all of which are wild type for both KRAS and BRAF. 5-6 week old Nu/Nu mice were implanted subcutaneously with 10×10^6 cells for each cell line used and dosing by oral gavage commenced after tumors had reached approximately 150-200 mm^3 on a dosing schedule of three times weekly (M, W, F) with a suspension of 50% 17-AG in HPMC-AS-HG dispersion in vehicle (1% hydroxyethylcellulose, 5% glycerol) at a dose level of 100 mg/kg 17-AG (IPI-493) as compared to vehicle control.

Compound | time for most of the HER2 to be degraded (HER2) | patients showing a partial response (PR) ([1]; out of 7 patients with SCC) [patients] | objective response rate (ORR) ([1]; patients with SCC) [%] | concentration above which virtually all ALK protein is degraded (EML4-ALK; ELISA) | degradation IC50 of EML4-ALK (EML4-ALK; ELISA of total and phosphorylated ALK) | IC50 (EML4-ALK; ELISA of total and phosphorylated ALK, read-out: degradation IC50 of EML4-ALK) [nM] | effect on tumor growth in wild-type kRAS/bRAF models [2] | effect on tumor growth in wild-type kRAS/bRAF models ([2]; listed as 17-AG)
C=CCNc1c(O)cc2c(O)c1C[C@@H](C)C[C@H](OC)[C@H](O)[C@@H](C)/C=C(\C)[C@H](OC(N)=O)[C@@H](OC)/C=C\C=C(/C)C(=O)N2 [IPI-504, retaspimycin hydrochloride] | about 24 h | 3 | 43 | above 50 nM | low nanomolar range | 4 |  | 
CO[C@H]1/C=C\C=C(/C)C(=O)NC2=CC(=O)C(N)=C(C[C@@H](C)C[C@H](OC)[C@H](O)[C@@H](C)/C=C(\C)[C@@H]1OC(N)=O)C2=O [IPI-493, 17-AG] |  |  |  |  |  |  | no detactable effect on TGI; also recorded: did not lead to tumor growth inhibition | no detectable difference in tumor volume
